What was measured:
KPC cells [1] = assay: cell viability with tigecycline; assay type: cell-based, mouse; details: parental cells on wild-type ECM versus R/R ECM or DDR1^KD cells on wild-type ECM, LG medium
Experimental: (§1) FIGS. 14A-14J: Effect of macropinocytosis and mitochondria on Col I-controlled PDAC cell growth. FIG. 14A, Bromodeoxyuridine (BrdU) incorporation into KPC cells plated on ECM mixtures produced by R/R and WT fibroblasts (R:W). Scale bars, 10 μm. FIG. 14B, FIG. 14C, Paren. and IKKα^KD KPC (FIG. 14B) or KC (FIG. 14C) cells were plated −/+ WT or R/R ECM and incubated in LG −/+ indicated reagents. Viable cells were measured after 3 days and depicted relative to untreated plastic-plated Paren. cells. (FIG. 14C). IKKα KD efficiency is shown on the right (FIG. 14B). […] Total viable cells were measured as above and are presented relative to the untreated cells. FIG. 14H, Mitochondrial ATP production calculated from FIG. 6B. […] Quantification of the SR positive area is shown on the left. […] Statistical significance determined by two-tailed t-test. […]
(§2) Cells were plated in 96-well plates coated with or without ECM at a density of 3,000 cells (MIA, 1305) or 1,500 cells (KPC or KC) per well and incubated overnight before treatment. […] Cell viability was determined with a Cell Counting Kit-8 assay (Glpbio). Optical density was read at 450 nm and analysed using a microplate reader with SoftMax 6.5 software (FilterMax F5, Molecular Devices). […]

1305 cells = assay: cell viability with tigecycline; assay type: cell-based, human; details: parental cells on wild-type ECM versus R/R ECM or DDR1^KD cells on wild-type ECM, LG medium, 24 h
Experimental: as §1, §2

KPC cells [2] = assay: macropinocytosis and mitochondria in KPC cells on ECM from Ilomastat-treated fibroblasts; assay type: cell-based, mouse; details: ECM from Ilomastat-treated wild-type fibroblasts, LG medium, 24 h
Experimental: FIGS. 12A-12M: Inhibition of Col I cleavage shuts down NRF2-driven macropinocytosis and mitochondrial biogenesis. FIG. 12A, MP and mitochondria in KPC cells plated on indicated ECM and incubated in LG for 24 h. Col IIB in indicated ECM preparations is shown on the right. FIG. 12B, IB of indicated proteins in above cells. FIG. 12C, MP and mitochondria in indicated KPC cells plated on R/R Col I^Δ ECM and incubated in LG for 24 h. FIG. 12D, LB of indicated proteins in 1305 cells plated on ECM produced by bacterial collagenase (CLG, 50 μg/ml) treated or untreated fibroblasts and incubated in LG medium −/+CLG for 24 h. FIG. 12E, Genes differentially expressed between KPC cells plated on indicated ECM. Light gray: replicates with low expression (z-score=−2); dark gray: replicates with high expression (z-score=+2). […] Quantitation on the right. […] Statistical significance determined by two-tailed t-test. ***P<0.001, ****P<0.0001. […]
Cells were cultured on coverslips coated with or without ECM and fixed in 4% paraformaldehyde for 10 min at room temperature or methanol for 10 min at —20° C. […] Images were captured and analysed using a TCS SPE Leica confocal microscope with Leica Application Suite AF 2.6.0.7266 software (Leica).
Macropinosomes or mitochondria were quantified by using the ‘Analyze Particles’ feature in Image J (NIH). […] Kaplan—Meier survival curves were analysed by log-rank test. […]

SMILES: CN(C)c1cc(NC(=O)CNC(C)(C)C)c(O)c2c1C[C@H]1C[C@H]3[C@H](N(C)C)C(O)=C(C(N)=O)C(=O)[C@@]3(O)C(O)=C1C2=O [tigecycline]
- sensitivity to tigecycline (viable cells) (KPC cells [1]): more sensitive
- sensitivity to tigecycline (viable cells) (1305 cells): more sensitive

SMILES: CNC(=O)[C@H](Cc1c[nH]c2ccccc12)NC(=O)[C@@H](CC(=O)NO)CC(C)C [Ilomastat]
- behaviour of ECM from treated fibroblasts (macropinocytosis, mitochondria) (KPC cells [2]): behaved like R/R ECM

From patent US20230341404A1, “TARGETING STROMA-CANCER INTERACTIONS IN CANCER” (The Regents of the University of California, priority 2022, published 2023)
